Laboratory results reported in US9220264B2, “Multimeric forms of antimicrobial peptides” (Singapore Health Services Pte Ltd., priority 2008, dated 2015).
Values after ≈ are worked out from the molar mass of the structure shown. Bridge positions count the residues as written; N and C are the ends. Peptide text beside a SMILES is read from it. I, II: the chains in the order shown.

Assays:
PA 9027 = assay: Bacterial viability assay (ED50); type: cell-based, Pseudomonas aeruginosa
Method: (§1) Cell viability was conducted for two Gram-negative bacteria (Pa 9027 and Pa 27853). The cultures were grown overnight on trypticase soy (TS) agar and a few isolated colonies were inoculated to achieve a turbidity equivalent to 0.5 McFarland standard. The cell concentration was adjusted to 10^6 CFU/ml with 10 mM phosphate buffer and separated into different tubes to get final concentration of 10^5 CFU/ml. The peptides were added to the individual tubes to obtain concentrations of ⅛ MIC, ¼ MIC, ½ MIC, 1 MIC, 2 MIC and 4 MIC. The tubes were incubated at 37° C. for 22 h. Serial dilution was performed and 100 μL of the suspension was aliquot onto Mueller Hinton Agar (MHA) plate. The plates were incubated for 24 h at 37° C. for colony counting. Positive control was performed at Oh and 22h.

PA 28753 = assay: Bacterial viability assay (ED50); type: cell-based, Pseudomonas aeruginosa; settings: 10 mM phosphate buffer; 37° C.; 22 h; read-out: ED50 (Effective dose to kill 50% of bacterial cells)
Method: as §1

LPS = assay: Competitive inhibition assay: effect of exogenous LPS on inhibitory activity; type: cell-based; settings: peptide at 1×MIC in MHB; compared to B2088; FIG. 10(C)
Method: Effect of LPS and Mg^2+ on MIC: To examine the interaction of peptide and LPS, the concentration of the latter was added exogenously from (0.001-100 mg/ml) in MHB at a peptide concentration of 1×MIC. The % inhibition was estimated and the amount of LPS required for 50% of antibacterial activity (IC50) was determined.

P. aeruginosa = assay: Time-kill kinetics assay; type: cell-based, Pseudomonas aeruginosa; settings: both Pseudomonas strains; 1× and 2×MIC; USP phosphate buffer pH 7.2; 35° C.; FIG. 12
Method: The kinetics of bactericidal action was performed by the assay reported before. Briefly, few colonies of overnight grown P. aeruginosa strains were collected from tryptic soy agar plate and suspended in US pharmacopeia phosphate buffer (pH 7.2). The suspension was adjusted to an initial inoculum of 10^6 CFU/mL and incubated with various concentrations of B2088 and B2088—99 at 35° C. 0.1 ml aliquots were withdrawn at various time intervals, diluted 10^2-10^4 fold using the same buffer, plated on tryptic soy agar plates and incubated at 35° C. The colonies were counted after 24 h incubation and expressed as CFU/ml. Buffer without peptides served as a positive control and % bacterial viability is estimated using the following equation: Bacterial viability=1−(CFU/mL)peptide/(CFU/mL)control*100

P. aeruginosa ATCC 9027 = assay: Outer membrane (OM) permeability assay (NPN uptake); type: cell-based, Pseudomonas aeruginosa; settings: 5 mM HEPES buffer pH 7.2; 10 μM NPN; FIG. 13
Method: The membrane impermeable probe N-phenyl-1-naphthyl amine (NPN) was used to probe the OM permeability of peptides. An overnight culture of P. aeruginosa ATCC 9027 was harvested by centrifugation (3000 rpm, 4° C.). The pellet was washed 2 times and resuspended in 5 mM HEPES buffer (pH 7.2) to OD600 of 0.4. The cells were placed in a 10 mm stirred cuvette and NPN was added to a final concentration of 10 μM. Appropriate concentrations of B2088 was added and the increase in fluorescence intensity was monitored on a Quanta Master fluorescence spectrophotometer (Photon Technology International, New Jersey, USA). The excitation and emission wavelengths were set at 350 and 410 nm with slid widths at 2 and 5 nm, respectively. The % NPN uptake was calculated relative to the increase in NPN fluorescence intensity after the addition of 50 μM polymyxin B.
The peptide concentration required to cause 50% increase in the NPN fluorescence intensity (PC50) was measured.

Kp ATCC 10031 = type: cell-based, Klebsiella pneumoniae; settings: ATCC 10031, 24 h
Method: The minimum inhibitory concentration (MIC) was determined using a broth microdilution method. Different strains of bacterial cells were grown in Mueller Hinton Broth (MHB) overnight. 100 μl of adjusted inoculum in MHB was added to 100 μl of each dilution of peptide or antibiotics dissolved in the broth, so as to yield a final cell density of 10^5 to 10^6 cfu/ml in each well of a microtitre plate. Additional microtitre plates may be used as necessary, if more wells are required for the assay or duplicate plates are required. The microtitre plates were incubated at 35° C. for 24 h and the absorbance at 600 nm (OD600) was monitored every 30 minutes. […] A positive control well contained the broth and organisms (no peptides/antibiotics), and a negative control well contains only the broth. The MIC of peptides for each clinical isolate or reference organism was recorded as the lowest concentration of peptide/antibiotic that inhibited visible growth of the test organism. […]

Structure (SMILES): N=C(N)NCCC[C@H](NC(=O)CNC(=O)CNC(=O)[C@H](CCCCN)NC(=O)[C@H](CCCNC(=N)N)NC(=O)CNC(=O)[C@@H](N)CCCNC(=N)N)C(=O)N[C@@H](CCCNC(=N)N)C(=O)NCCCC[C@H](NC(=O)[C@H](CCCNC(=N)N)NC(=O)[C@H](CCCNC(=N)N)NC(=O)CNC(=O)CNC(=O)[C@H](CCCCN)NC(=O)[C@H](CCCNC(=N)N)NC(=O)CNC(=O)[C@@H](N)CCCNC(=N)N)C(=O)N[C@@H](CCCCN)C(=O)O [B2088_99, (RGRKGGRR)2KK] (I: H-RGRKGGRRKK-OH / II: H-RGRKGGRR; amide I:9-II:C; N-terminus assumed)
- EC50 (PA 9027; 10 mM phosphate buffer, 37° C., 22 h, read-out: ED50 (Effective dose to kill 50% of bacterial cells)): 0.33 ± 0.05 µM
- ED50 compared with B2088 (PA 9027; Pa 9027 and Pa 27853, Table 22 and FIG. 11): two times lower
- EC50 (PA 28753): 0.48 ± 0.03 µM
- concentration of LPS to suppress the inhibitory activity (LPS): higher concentration of LPS
- kill kinetics (P. aeruginosa): faster kill kinetics
- PC50 (peptide concentration to cause 50% increase in NPN fluorescence intensity) (P. aeruginosa ATCC 9027): higher than B2088
- Minimum inhibitory concentration (MIC) (Kp ATCC 10031): 1.5 µM (≈ 3.18 µg/mL)
